This data set is described as follows: Log P by HPLC on reversed phase columns (EEC directive 79/831 Annex V.A8). The data set is classed as physicochemical. Put shortly: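 Values come from retention times calibrated against alkan-2-ones (3–16 carbons) by linear interpolation, using reversed-phase LC-UV per EEC directive 79/831 Annex V.A8. Acetonitrile gradient 10–95% with 0.1% formic acid [a], 0.001 M ammonium acetate [b] or 0.1% phosphoric acid [c]; several values within one method separated by "+".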

Where [1] appears, read: method marker [a] given with each value, Table 1.1, compounds of formula (I).

Consider `CCOC(=O)CNC(=O)c1sc(C)c(Cl)c1Cl` [1.0848], for which the LogP (method [a]) is 2.82^[a].
Take `COC(=O)C1(NC(=O)c2sc(Br)c(Br)c2Cl)CCC1` [1.0849]: for the setting “method [a]”, the LogP is 3.75^[a].
Regarding `N#CCNC(=O)c1sc(Br)c(Br)c1Cl` [1.0850], the LogP (method [a]) is 2.67^[a].
Same read-out and setting: with `COC(=O)CNC(=S)c1sc(Cl)c(Cl)c1Br` [1.0851] the figure was 4.09^[a].
Still for that read-out and setting: then `COC(=O)CNC(=S)c1sc(Br)c(Br)c1Cl` [1.0852], with 4.07^[a]; and `CCOC(=O)C1(NC(=S)c2sc(Cl)c(Br)c2Cl)CCC1` [1.0853], with 5.04^[a]; and `O=C(O)CNC(=S)c1sc(Cl)c(Cl)c1Br` [1.0854], with 3.11^[a].
Same read-out and setting: with `C#CCOC(=O)CNC(=O)c1sc(Br)c(Br)c1F` [1.0855] the figure was 2.87^[a].
`O=C(CNC(=O)c1sc(Br)c(Br)c1F)OC1CC1` [1.0856]: the LogP (method [a]) is 3.02^[a].
Turning to `C=CCOC(=O)CNC(=O)c1sc(Br)c(Br)c1F` [1.0857], under “method [a]”, the LogP was 3.13^[a].
Regarding `N#CCCOC(=O)CNC(=O)c1sc(Br)c(Br)c1F` [1.0858], where the note is “method [a]”, the LogP is 2.48^[a].
On the same count and under the same terms, then `O=C(CNC(=O)c1sc(Br)c(Br)c1F)OCC1CC1` [1.0859], with 3.39^[a]; and `CCCCOC(=O)CNC(=O)c1sc(Br)c(Br)c1F` [1.0860], with 3.79^[a]; and `O=C(O)CNC(=S)c1sc(Br)c(Br)c1Cl` [1.0861], with 3.08^[a].
Still for that read-out and setting: with `O=C(CNC(=O)c1sc(Br)c(Br)c1F)OC1CCCC1` [1.0862] the figure was 3.84^[a]; with `O=C(CNC(=O)c1sc(Br)c(Br)c1F)Oc1ccccc1` [1.0863], 3.58^[a]; with `COC(=O)CNC(=S)c1sc(C#N)c(Br)c1C` [1.0864], 2.92^[a].
Still for that read-out and setting: with `CCOC(=O)C(NC(=S)c1sc(Br)c(Br)c1F)C1CC1` (stereo not shown) [1.0865] the figure was 4.99^[a]; with `N#CC1(NC(=O)c2sc(Br)c(Br)c2Cl)CCSCC1` [1.0868], 3.71^[a]; with `N#CC1(NC(=O)c2sc(Br)c(Br)c2F)CCSCC1` [1.0871], 3.40^[a].
As for `CC(C#N)(NC(=O)c1sc(Br)c(Br)c1F)C1CC1` (stereo not shown) [1.0872], the LogP (method [a]) was 3.47^[a].
With `N#CC1(NC(=O)c2sc(Br)c(Br)c2Cl)CCC1` [1.0873], the LogP (method [a]) was 3.35^[a].
As to `CC(C)C(C#N)NC(=O)c1sc(Br)c(Br)c1Cl` (stereo not shown) [1.0874], the LogP (method [a]) was 3.88^[a].
For the compound `O=C(O)CNC(=O)c1sc(Cl)c(Br)c1Cl` [1.0875], the LogP (method [a]) was 2.18^[a].
For `O=C(O)C(Cc1ccccc1)NC(=S)c1sc(Br)c(Br)c1F` (stereo not shown) [1.0876], the LogP (method [a]) is 4.17^[a].
Regarding `CCOC(=O)CNC(=S)c1sc(C#N)c(Br)c1C` [1.0877], under “method [a]”, the LogP is 3.30^[a].
With `COC(=O)CNC(=S)c1cc(Br)c(Cl)s1` [1.0878], for the setting “method [a]”, the LogP is 3.35^[a].
Still for that read-out and setting: with `CCCOC(=O)C1(NC(=O)c2sc(Cl)c(Cl)c2Br)CCC1` [1.0879] the figure was 4.74^[a]; with `O=C(NC1(C(=O)OC2CCCCC2)CCC1)c1sc(Cl)c(Cl)c1Br` [1.0880], 5.89^[a].
Regarding `NC(=S)C1(NC(=O)c2sc(Cl)c(Cl)c2Br)CC1` [1.0881], the LogP (method [a]) was 2.77^[a].
Same read-out and setting: then `CNC(=O)C1(NC(=O)c2sc(Cl)c(Cl)c2Br)CC1` [1.0882], with 2.28^[a].
For the compound `O=C(CNC(=O)c1sc(Br)c(Br)c1Cl)OC1CCOCC1` [1.0883], the LogP (method [a]) was 3.14^[a].
As to `CC(C)(C)OC(=O)C(NC(=O)c1sc(Br)c(Br)c1Cl)C1CC1` (stereo not shown) [1.0884], under “method [a]”, the LogP was 5.36^[a].
Take `O=C(NC(C(=O)OC1CCC1)C1CC1)c1sc(Br)c(Br)c1Cl` (stereo not shown) [1.0885]: the LogP (method [a]) is 5.08^[a].
Turning to `CC(C)OC(=O)C(NC(=O)c1sc(Br)c(Br)c1Cl)C1CC1` (stereo not shown) [1.0886], the LogP (method [a]) is 4.89^[a].
Regarding `O=C(NC1(C(=O)OCC2CC2)CCC1)c1sc(Br)c(Br)c1Cl` [1.0887], the LogP (method [a]) is 4.81^[a].
On to `O=C(NC1(C(=O)OCc2ccccc2)CCC1)c1sc(Cl)c(Cl)c1Br` [1.0888], for which the LogP (method [a]) is 5.00^[a].
Same read-out and setting: with `O=C(NC1(C(=O)OC2CCC2)CCC1)c1sc(Cl)c(Cl)c1Br` [1.0889] the figure was 4.93^[a]; with `CCCCOC(=O)C1(NC(=O)c2sc(Cl)c(Cl)c2Br)CCC1` [1.0890], 5.20^[a]; with `CC(C)(C)OC(=O)C1(NC(=O)c2sc(Cl)c(Cl)c2Br)CCC1` [1.0891], 5.28^[a].
In the case of `COC(=O)CNC(=O)c1sc(Cl)c(C)c1Cl` [1.0892], where the note is “method [a]”, the LogP is 2.64^[a].
In the case of `CCOC(=O)CNC(=O)c1sc(Cl)c(C)c1Cl` [1.0893], the LogP (method [a]) was 3.07^[a].
On to `NC(=O)CNC(=O)c1sc(Br)c(Br)c1F` [1.0894], for which, for the setting “method [a]”, the LogP is 1.69^[a].
In the case of `N#CNC(=O)C1(NC(=O)c2sc(Br)c(Br)c2F)CC1` [1.0895], the LogP (method [a]) is 2.38^[a].
For `NC(=S)CNC(=O)c1sc(Br)c(Br)c1F` [1.0896], under “method [a]”, the LogP was 2.25^[a].
As to `COC(=O)C1(NC(=O)c2sc(C)c(Cl)c2Cl)CC1` [1.0897], the LogP (method [a]) was 2.67^[a].
For `CC(C)(C)OC(=O)C1(NC(=O)c2sc(Br)c(Br)c2Cl)CC1` [1.0898], under “method [a]”, the LogP is 5.28^[a].
Same read-out and setting: with `CCOC(=O)CNC(=O)c1cc(Cl)c(F)s1` [1.0899] the figure was 2.23^[a]; with `NC(=S)C1(NC(=O)c2sc(Br)c(Br)c2F)CC1` [1.0900], 2.42^[a].
On the same count and under the same terms, then `COC(=O)C1(NC(=O)c2cc(Cl)c(F)s2)CC1` [1.0901], with 2.13^[a]; and `CC(C)(C)OC(=O)C(NC(=O)c1sc(Cl)c(Cl)c1Br)C1CC1` (stereo not shown) [1.0902], with 5.41^[a].
Same read-out and setting: with `O=C(NC(C(=O)OC1CCC1)C1CC1)c1sc(Cl)c(Cl)c1Br` (stereo not shown) [1.0903] the figure was 5.08^[a]; with `CC(C)OC(=O)C(NC(=O)c1sc(Cl)c(Cl)c1Br)C1CC1` (stereo not shown) [1.0904], 4.89^[a].
Take `O=C(NC1(C(=O)OCC2CC2)CCC1)c1sc(Cl)c(Cl)c1Br` [1.0905]: the LogP (method [a]) was 4.78^[a].
Still for that read-out and setting: with `COC(=O)CNC(=O)c1cc(Cl)c(F)s1` [1.0906] the figure was 1.90^[a]; with `CCCCOC(=O)C1(NC(=O)c2sc(Br)c(Br)c2Cl)CCC1` [1.0907], 5.20^[a].
Same read-out and setting: with `O=C(NC1(C(=O)OC2CCC2)CCC1)c1sc(Br)c(Br)c1Cl` [1.0908] the figure was 4.97^[a]; with `O=C(NC1(C(=O)OCc2ccccc2)CCC1)c1sc(Br)c(Br)c1Cl` [1.0909], 5.00^[a]; with `C#CCOC(=O)CNC(=O)c1sc(Cl)c(Cl)c1C#N` [1.0910], 2.58^[a].
As to `C#CCOC(=O)CNC(=O)c1sc(C#N)c(Cl)c1Cl` [1.0911], the LogP (method [a]) was 2.63^[a].
As for `C=CCOC(=O)C1(NC(=O)c2sc(C#N)c(Cl)c2Cl)CC1` [1.0912], for the setting “method [a]”, the LogP is 3.00^[a].
The same measure, in the same setting: with `C=CCOC(=O)C1(NC(=O)c2sc(Cl)c(Cl)c2C#N)CC1` [1.0913] the figure was 2.91^[a].
Same read-out and setting: then `Cc1c(C(=O)NCC(N)=O)sc(C#N)c1Cl` [1.0914], with 1.34^[a].
On the same count and under the same terms, with `Cc1c(C(=O)NCC(N)=O)sc(C#N)c1Br` [1.0915] the figure was 1.38^[a]; with `N#Cc1c(C(=O)NCC(N)=O)sc(Cl)c1Cl` [1.0916], 1.47^[a].
On to `CCCOC(=O)C1(NC(=O)c2sc(Br)c(Br)c2Cl)CCC1` [1.0917], for which the LogP (method [a]) is 4.78^[a].
`O=C(NC1(C(=O)OC2CCCCC2)CCC1)c1sc(Br)c(Br)c1Cl` [1.0918]: the LogP (method [a]) was 5.89^[a].
Still for that read-out and setting: then `NC(=S)C1(NC(=O)c2sc(Br)c(Br)c2Cl)CC1` [1.0919], with 2.80^[a]; and `CNC(=O)C1(NC(=O)c2sc(Br)c(Br)c2Cl)CC1` [1.0920], with 2.31^[a]; and `O=C(NC1(C(=O)OCC2CC2)CCC1)c1sc(Br)c(Br)c1F` [1.0924], with 4.33^[a].
On the same count and under the same terms, then `CC(C)(C)OC(=O)C1(NC(=O)c2sc(Br)c(Br)c2F)CCC1` [1.0925], with 4.78^[a].
In the case of `CCCCOC(=O)C1(NC(=O)c2sc(Br)c(Br)c2F)CCC1` [1.0926], the LogP (method [a]) is 4.74^[a].
`O=C(NC1(C(=O)OCc2ccccc2)CCC1)c1sc(Br)c(Br)c1F` [1.0927]: where the note is “method [a]”, the LogP was 4.59^[a].
Same read-out and setting: then `CCCOC(=O)C1(NC(=O)c2sc(Br)c(Br)c2F)CCC1` [1.0928], with 4.30^[a]; and `O=C(NC1(C(=O)OC2CCCCC2)CCC1)c1sc(Br)c(Br)c1F` [1.0929], with 5.28^[a].
On the same count and under the same terms, then `O=C(NC1(C(=O)OC2CCC2)CCC1)c1sc(Br)c(Br)c1F` [1.0930], with 4.47^[a].
In the case of `CCOC(=O)CN(C(=O)c1sc(Br)c(Br)c1Cl)C1CC1` [1.0935], the LogP under setting [1] is 3.81^[a].
For `CCOC(=O)CN(C(=O)c1sc(Cl)c(Br)c1Cl)C1CC1` [1.0936], the LogP under setting [1] is 3.80^[a].
With `CCOC(=O)CN(C(=O)c1sc(Cl)c(Cl)c1Br)C1CC1` [1.0937], under setting [1], the LogP was 3.81^[a].
`CCOC(=O)CN(C(=O)c1sc(Br)c(Br)c1F)C1CC1` [1.0938]: under setting [1], the LogP is 3.64^[a].
Still for that read-out and setting: then `COC(=O)C(C)(Cc1ccccc1)NC(=O)c1sc(Br)c(Br)c1F` (stereo not shown) [1.0954], with 4.64^[a].
As to `COC(=O)C(Cc1ccc(Cl)cc1)NC(=O)c1sc(Br)c(Br)c1F` (stereo not shown) [1.0955], under setting [1], the LogP was 4.52^[a].
On to `C#CCOC(=O)CNC(=O)c1sc(Br)c(Br)c1Cl` [1.0959], for which, under setting [1], the LogP was 3.20^[a].
Same read-out and setting: then `O=C(CNC(=O)c1sc(Br)c(Br)c1Cl)OC1CC1` [1.0960], with 3.39^[a].
Consider `C=CCOC(=O)CNC(=O)c1sc(Br)c(Br)c1Cl` [1.0961], for which, under setting [1], the LogP was 3.50^[a].
`C=CCOC(=O)C1(NC(=O)c2sc(C#N)c(Br)c2C)CC1` [1.0962]: the LogP under setting [1] is 2.81^[a].
As for `C#CCOC(=O)C1(NC(=O)c2sc(C#N)c(Br)c2C)CC1` [1.0963], under setting [1], the LogP was 2.61^[a].
Turning to `Cc1c(C(=O)NC2(C(=O)OC(C)C)CC2)sc(C#N)c1Br` [1.0964], the LogP under setting [1] was 2.93^[a].

(Values after patent US12642270B2, “Substituted thiophene carboxamides, thiophene carboxylic acids and derivatives thereof” (Bayer Aktiengesellschaft, priority 2019, dated 2026).)
